Measurements: patent publication EP4603105A1, “PHARMACEUTICAL COMPOSITION CONTAINING CYCLIC COMPOUND HAVING SELECTIVE KRAS INHIBITORY EFFECT AGAINST HRAS AND NRAS” (CHUGAI SEIYAKU KABUSHIKI KAISHA, priority 2022, dated 2024)
pIC50, pKd: −log10 of the molar value. Where a SMILES comes first, the peptide text is derived from it. Bridges are numbered along the chain shown (N, C = ends). [ ]: non-standard residue; d: D form. The star is where a group is joined. hPhe(3-Cl-4-CF3) = N[C@@H](CCc1ccc(C(F)(F)F)c(Cl)c1)C(=O)O; NPrPhe(4-CF3) = CCCN[C@@H](Cc1ccc(C(F)(F)F)cc1)C(=O)O; 3Oxa8azabicyclo(3.2.1)octane = C1CC2COCC1N2*; NMeGly(cPent) = CN[C@H](C(=O)O)C1CCCC1; NMeD = CN[C@@H](CC(=O)O)C(=O)O; NMeL = CN[C@@H](CC(C)C)C(=O)O; NMeA = CN[C@@H](C)C(=O)O; Ac5c = NC1(C(=O)O)CCCC1; Aze = O=C(O)[C@@H]1CCN1; Sar = CNCC(=O)O

Tests used:
[1] = molecular target: GDP-bound KRAS wild-type protein (Homo sapiens, UniProt P01116); test: Binding to KRAS by surface plasmon resonance (SPR), dissociation constant KD
Chain of GDP-bound KRAS wild-type protein (P01116 1-188 isoform P01116-2): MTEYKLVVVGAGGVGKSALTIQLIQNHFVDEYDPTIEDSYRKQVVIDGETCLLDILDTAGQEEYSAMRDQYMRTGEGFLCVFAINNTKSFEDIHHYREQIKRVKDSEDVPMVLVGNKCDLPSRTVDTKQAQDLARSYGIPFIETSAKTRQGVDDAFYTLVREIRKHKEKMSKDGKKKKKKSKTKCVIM
Summary of the method: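 Recombinant RAS proteins bearing a biotinylated Avi tag and loaded with GDP served as the captured ligand, recaptured fresh every cycle. Binding responses were referenced to an uncoated surface and a buffer-only blank cycle. Dissociation constants were obtained by 1:1 model fitting at 30°C.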

[2] = molecular target: GDP-bound NRAS wild-type protein (Homo sapiens, UniProt P01111); test: Binding to NRAS by surface plasmon resonance (SPR), KD and KD ratio to KRAS
Chain of GDP-bound NRAS wild-type protein (P01111 whole entry): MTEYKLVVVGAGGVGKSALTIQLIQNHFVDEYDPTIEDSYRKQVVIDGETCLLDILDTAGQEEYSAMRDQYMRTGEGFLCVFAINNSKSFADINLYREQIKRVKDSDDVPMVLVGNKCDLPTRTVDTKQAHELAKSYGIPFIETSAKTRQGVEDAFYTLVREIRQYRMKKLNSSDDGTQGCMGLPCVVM
Summary of the method: (§1)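 SPR, 30°C: Avi-biotin RAS·GDP captured via Biotin CAPture (~100–300 RU); running buffer HBS pH 7.4, 1 mM DTT, 10 mM MgCl2, 0.01% Tween 20, 10 µM GDP, 4% DMSO. Single-cycle kinetics, 100 µL/min, 75 s injections; 1:1 model → KD.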

HRAS wild-type protein = HRAS wild-type protein (Homo sapiens, UniProt P01112); test: Binding to HRAS by surface plasmon resonance (SPR), KD and KD ratio to KRAS
Chain of HRAS wild-type protein (P01112 whole entry): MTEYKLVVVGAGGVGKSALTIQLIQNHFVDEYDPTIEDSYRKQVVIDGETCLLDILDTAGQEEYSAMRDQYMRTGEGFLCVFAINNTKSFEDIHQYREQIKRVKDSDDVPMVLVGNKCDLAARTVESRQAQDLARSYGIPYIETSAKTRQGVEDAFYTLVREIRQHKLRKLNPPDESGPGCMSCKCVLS
Summary of the method: as §1

[3] = tested on: human lung cancer strain NCI-H441; assay type: cell-based
Summary of the method: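 Proliferation was scored by […] measured after the reagent was added to cultures kept at 37°C in 5% carbon dioxide.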

[4] = ratio of KD for GDP-bound NRAS wild-type protein to KD for KRAS
[5] = ratio of KD for HRAS wild-type protein to KD for KRAS
[6] = Single Cycle Kinetics, 1:1 binding model
[7] = ratio of KD value for GDP-bound NRAS wild-type protein to KD value for KRAS (SPR)
[8] = ratio of KD value for HRAS wild-type protein to KD value for KRAS (SPR)
[9] = ratio of the KD value with respect to GDP-bound NRAS wild-type protein to the KD value with respect to KRAS
[10] = ratio of the KD value with respect to HRAS wild-type protein to the KD value with respect to KRAS

SMILES | pKd ([1]; 1:1 binding model) | NRAS /KRAS [2, 4] | HRAS /KRAS (HRAS wild-type protein; [5]) | pIC50 [3] | pKd [1, 6] | NRAS /KRAS [2, 7] | HRAS /KRAS (HRAS wild-type protein; [8]) | pKd ([1]; Single Cycle Kinetics) | NRAS /KRAS [2, 9] | HRAS /KRAS (HRAS wild-type protein; [10])
CC[C@H](C)[C@@H]1NC(=O)[C@H](COC)N(C)C(=O)C[C@@H](C(=O)N(C)CC)N(C)C(=O)[C@H](C2CCCC2)N(C)C(=O)C2(CC(C)(C)C2)NC(=O)[C@@H]2C[C@@H](F)CN2C(=O)[C@H](CCc2cc(F)cc(F)c2)NC(=O)CN(C)C(=O)[C@H](Cc2ccc(C(F)(F)F)cc2)N2CC/C=C\C[C@@H](C2=O)N(C)C(=O)CN(C)C1=O [PP3138] | 8.36 | A (a compound having 10 or more and less than 20 is denoted as A) | A (a compound having 10 or more and less than 20 is denoted as A) | 6.30 | – | – | – | – | – | –
CCO[C@@H]1C[C@H]2C(=O)NC3(CCC3)C(=O)N(C)[C@@H](C3CCCC3)C(=O)N(C)[C@H](C(=O)N(C)C)CC(=O)N(C)[C@@H](CC3CCCC3)C(=O)N[C@@H]([C@@H](C)CC)C(=O)N(C)CC(=O)N(C)[C@H]3C/C=C\CCN(C3=O)[C@@H](Cc3ccc(C)cc3)C(=O)N(C)CC(=O)N[C@@H](CCc3ccc(C4CC4)c(Cl)c3)C(=O)N2C1 [PP2684] | 9.37 | A (a compound having 10 or more and less than 20 is denoted as A) | A (a compound having 10 or more and less than 20 is denoted as A) | 7.24 | – | – | – | – | – | –
CCO[C@@H]1C[C@H]2C(=O)NC3(CCC3)C(=O)N(C)[C@@H](C(CC)CC)C(=O)N(C)[C@H](C(=O)N(C)C)CC(=O)N(C)[C@@H](CC3CC3)C(=O)N[C@@H]([C@@H](C)CC)C(=O)N(C)CC(=O)N(C)[C@H]3C/C=C\CCN(C3=O)[C@@H](Cc3ccc(F)cc3C)C(=O)N(C)CC(=O)N[C@@H](CCc3cc(F)c(C(F)(F)F)c(F)c3)C(=O)N2C1 [PP1514] | – | – | – | 7.14 | 9.19 | A (a compound having 10 or more and less than 20 is denoted as A) | A (a compound having 10 or more and less than 20 is denoted as A) | – | – | –
CCC[C@H]1C(=O)N[C@@H]([C@@H](C)CC)C(=O)N(C)CC(=O)N(C)[C@H]2C/C=C\CCN(C2=O)[C@@H](Cc2ccc(C)cc2)C(=O)N(C)CC(=O)N[C@@H](CCc2ccc(C(F)(F)F)c(OC)c2)C(=O)N2C[C@@H](C)C[C@H]2C(=O)NC2(CCC2)C(=O)N(C)[C@@H](C2CCCC2)C(=O)N(C)[C@H](C(=O)N(C)CC)CC(=O)N1C [PP1840] | – | – | – | 7.57 | 9.92 | A (a compound having 10 or more and less than 20 is denoted as A) | B (a compound having 3 or more and less than 10 is denoted as B) | – | – | –
CCO[C@@H]1C[C@H]2C(=O)NC3(CCC3)C(=O)N(C)[C@@H](C3CCCC3)C(=O)N(C)[C@H](C(=O)N(C)C)CC(=O)N(C)[C@@H](CC3CC3)C(=O)N[C@@H]([C@@H](C)CC)C(=O)N(C)CC(=O)N(C)[C@H]3C/C=C\CCN(C3=O)[C@@H](Cc3ccc(F)cc3C)C(=O)N(C)CC(=O)N[C@@H](CCc3cc(F)c(C(F)(F)F)c(F)c3)C(=O)N2C1 [PP1528] | – | – | – | 7.34 | 9.70 | A (a compound having 10 or more and less than 20 is denoted as A) | B (a compound having 3 or more and less than 10 is denoted as B) | – | – | –
CCCN1C(=O)[C@@H]2CCN2C(=O)[C@H](C)N(C)C(=O)[C@H]([C@@H](C)CC)NC(=O)[C@H](CC(C)C)N(C)C(=O)C[C@@H](C(=O)N2C3CCC2COC3)N(C)C(=O)[C@H](C2CCCC2)N(C)C(=O)C2(CCCC2)NC(=O)[C@@H]2CCCN2C(=O)[C@H](CCc2ccc(C(F)(F)F)c(Cl)c2)NC(=O)CN(C)C(=O)[C@@H]1Cc1ccc(C(F)(F)F)cc1 [PP0182] ([NMeL]I[NMeA][Aze][NPrPhe(4-CF3)][Sar][hPhe(3-Cl-4-CF3)]P[Ac5c][NMeGly(cPent)][NMeD]-{3Oxa8azabicyclo(3.2.1)octane}; lactam N-11) | 9.06 | C (A compound having a KD ratio of 0.1 or more and less than 3 is denoted as C) | B (a compound having 3 or more and less than 10 is denoted as B) | 8.21 | – | – | – | – | – | –
CCO[C@@H]1C[C@H]2C(=O)NC3(CC(C)(C)C3)C(=O)N(C)[C@@H](C3CCCC3)C(=O)N(C)[C@H](C(=O)N(C)C)CC(=O)N(C)[C@@H]([C@@H](C)OC)C(=O)N[C@@H]([C@@H](C)CC)C(=O)N3CCC[C@H]3C(=O)N(C)[C@H]3C/C=C\CCN(C3=O)[C@@H](Cc3ccc(C)cc3)C(=O)N(C)CC(=O)N[C@@H](CCc3ccc(C(F)(F)F)c(OC)c3)C(=O)N2C1 [PP3213] | 9.22 | A (a compound having 10 or more and less than 20 is denoted as A) | A (a compound having 10 or more and less than 20 is denoted as A) | 7.21 | – | – | – | – | – | –
CCO[C@@H]1CCN2C(=O)[C@H](CCc3cc(F)c(C(F)(F)F)c(F)c3)NC(=O)CN(C)C(=O)[C@H](Cc3ccc(C(F)(F)F)cc3)N3CCCCC[C@@H](C3=O)N(C)C(=O)CN(C)C(=O)[C@H]([C@@H](C)CC)NC(=O)[C@H](CC(C)C)N(C)C(=O)C[C@@H](C(=O)N3CCOCC3)N(C)C(=O)[C@H](C3CCCC3)N(C)C(=O)C3(CCC3)NC(=O)[C@H]12 [PP1082] | – | A (a compound having 10 or more and less than 20 is denoted as A) | B (a compound having 3 or more and less than 10 is denoted as B) | 6.52 | – | – | – | 8.46 | – | –
CCO[C@@H]1C[C@H]2C(=O)NC3(CCC3)C(=O)N(C)[C@@H](C3CCCC3)C(=O)N(C)[C@H](C(=O)N(C)C)CC(=O)N(C)[C@@H](CC3CCCC3)C(=O)N[C@@H]([C@@H](C)CC)C(=O)N(C)CC(=O)N(C)[C@H]3CCCCCN(C3=O)[C@@H](Cc3ccc(C(F)(F)F)cc3)C(=O)N(C)CC(=O)N[C@@H](CCc3cc(F)c(C(F)(F)F)c(F)c3)C(=O)N2C1 [PP0670] | – | – | – | 7.95 | 9.55 | – | – | – | B (a compound having 3 or more and less than 10 is denoted as B) | B (a compound having 3 or more and less than 10 is denoted as B)
CCO[C@@H]1C[C@H]2C(=O)NC3(CC(C)(C)C3)C(=O)N(C)[C@@H](C3CCCC3)C(=O)N(C)[C@H](C(=O)N(C)CC)CC(=O)N(C)[C@@H](CC(C)C)C(=O)N[C@@H]([C@@H](C)CC)C(=O)N(C)CC(=O)N(C)[C@H]3C/C=C\CCN(C3=O)[C@@H](Cc3ccc(C(F)F)cc3)C(=O)N(C)CC(=O)N[C@@H](CCc3ccc(C4CC4)c(Cl)c3)C(=O)N2C1 [PP3155] | 9.19 | A (a compound having 10 or more and less than 20 is denoted as A) | A (a compound having 10 or more and less than 20 is denoted as A) | 7.20 | – | – | – | – | – | –
CCCN(C)C(=O)[C@@H]1CC(=O)N(C)[C@@H](CC(F)F)C(=O)N[C@@H]([C@@H](C)CC)C(=O)N(C)CC(=O)N(C)[C@H]2C/C=C\CCN(C2=O)[C@@H](Cc2ccc(C(F)(F)F)cc2)C(=O)N(C)CC(=O)N[C@@H](CCc2ccc(C(F)(F)F)c(OC)c2)C(=O)N2C[C@@H](C)C[C@H]2C(=O)NC2(CCC2)C(=O)N(C)[C@@H](C2CCCC2)C(=O)N1C [PP2024] | – | – | – | 8.00 | 10.09 | – | – | – | A (a compound having 10 or more and less than 20 is denoted as A) | B (a compound having 3 or more and less than 10 is denoted as B)
CCO[C@@H]1C[C@H]2C(=O)NC3(CC(C)(C)C3)C(=O)N(C)[C@@H](C3CCCC3)C(=O)N(C)[C@H](C(=O)N(C)C)CC(=O)N(C)[C@@H]([C@@H](C)OC)C(=O)N[C@@H]([C@@H](C)CC)C(=O)N(C3CC3)CC(=O)N(C)[C@H]3C/C=C\CCN(C3=O)[C@@H](Cc3ccc(C)cc3)C(=O)N(C)CC(=O)N[C@@H](CCc3cc(F)c(C(F)(F)F)c(F)c3)C(=O)N2C1 [PP3211] | 9.48 | A (a compound having 10 or more and less than 20 is denoted as A) | A (a compound having 10 or more and less than 20 is denoted as A) | 7.71 | – | – | – | – | – | –
CC[C@H](C)[C@@H]1NC(=O)[C@H](CC)N(C)C(=O)C[C@@H](C(=O)N(C)C)N(C)C(=O)[C@H](C2CCCC2)N(C)C(=O)C2(CC(C)(C)C2)NC(=O)[C@@H]2C[C@@H](C)CN2C(=O)[C@H](CCc2ccc(C(F)(F)F)c(Cl)c2)NC(=O)CN(C)C(=O)[C@H](Cc2ccc(C)cc2)N2CC/C=C\C[C@@H](C2=O)N(C)C(=O)CN(C)C1=O [PP1846] | – | – | – | 8.01 | 10.00 | A (a compound having 10 or more and less than 20 is denoted as A) | B (a compound having 3 or more and less than 10 is denoted as B) | – | – | –
CCO[C@@H]1C[C@H]2C(=O)NC3(CCC3)C(=O)N(C)[C@@H](C3CCCC3)C(=O)N(C)[C@H](C(=O)N3CCOCC3)CC(=O)N(C)[C@@H](CC3CC3)C(=O)N[C@@H]([C@@H](C)CC)C(=O)N(C)CC(=O)N(C)[C@H]3C/C=C\CCN(C3=O)[C@@H](Cc3ccc(F)cc3C)C(=O)N(C)CC(=O)N[C@@H](CCc3cc(F)c(C(F)(F)F)c(F)c3)C(=O)N2C1 [PP1495] | – | – | – | 7.01 | 9.26 | A (a compound having 10 or more and less than 20 is denoted as A) | B (a compound having 3 or more and less than 10 is denoted as B) | – | – | –
CCC(CC)[C@H]1C(=O)N(C)[C@H](C(=O)N(C)C)CC(=O)N(C)[C@@H](COC)C(=O)N[C@@H]([C@@H](C)CC)C(=O)N(C)CC(=O)N(C)[C@H]2C/C=C\CCN(C2=O)[C@@H](Cc2ccc(C)cc2)C(=O)N(C)CC(=O)N[C@@H](CCc2ccc(Cl)c(Cl)c2)C(=O)N2CCCCC[C@H]2C(=O)NC2(CC(C)(C)C2)C(=O)N1C [PP2974] | 8.89 | A (a compound having 10 or more and less than 20 is denoted as A) | A (a compound having 10 or more and less than 20 is denoted as A) | 7.41 | – | – | – | – | – | –
